The NIST ThermoML archive (doi:10.1016/j.fluid.2014.09.014)

Test: refractive index (other wavelength) (dimensionless); xn = mol fraction of the nth substance listed
Details: 313.15 K, 101 kPa, Liquid, Standard Abbe refractometry

CC(C)OC(C)C [diisopropyl ether] + CO
refractive index
Details | Wavelength=587.6 nm | Wavelength=589.3 nm | Wavelength=632.8 nm | Wavelength=644 nm
x2 = 0 | – | 1.35694 | 1.35572 | 1.35543
x2 = 0.0423 | – | 1.35688 | 1.35563 | 1.35534
x2 = 0.0424 | – | 1.3569 | 1.35568 | 1.3554
x2 = 0.082 | – | 1.35685 | 1.35562 | 1.35532
x2 = 0.0822 | – | 1.35704 | 1.35581 | 1.35552
x2 = 0.1171 | – | 1.3569 | 1.35567 | 1.35538
x2 = 0.1271 | – | 1.35691 | 1.35566 | 1.35538
x2 = 0.1827 | – | 1.35671 | 1.35548 | 1.35518
x2 = 0.2162 | – | 1.35656 | 1.35535 | 1.35505
x2 = 0.251 | – | 1.35622 | 1.35489 | 1.3546
x2 = 0.3298 | – | 1.35621 | 1.35494 | 1.35463
x2 = 0.3577 | – | 1.3559 | 1.35417 | 1.35388
x2 = 0.4497 | – | 1.35414 | 1.35292 | 1.35264
x2 = 0.4525 | – | 1.35454 | 1.35331 | 1.35302
x2 = 0.522 | – | 1.35241 | 1.3512 | 1.35091
x2 = 0.5543 | 1.3516 | 1.35155 | 1.35036 | 1.35008
x2 = 0.609 | 1.34934 | 1.34929 | 1.3481 | 1.34783
x2 = 0.6529 | 1.34786 | 1.34781 | 1.34667 | 1.34638
x2 = 0.7504 | 1.34401 | 1.34396 | 1.34279 | 1.34252
x2 = 0.804 | 1.33965 | 1.3396 | 1.33846 | 1.33821
x2 = 0.807 | 1.33975 | 1.3409 | 1.33854 | 1.33829
x2 = 0.8727 | 1.33626 | 1.33609 | 1.33509 | 1.33482
x2 = 0.9233 | 1.3284 | 1.32835 | 1.32726 | 1.32702
x2 = 0.9253 | 1.33006 | 1.33001 | 1.32891 | 1.32867
x2 = 0.9527 | 1.32712 | 1.32708 | 1.32598 | –
x2 = 0.9773 | 1.32383 | 1.32378 | 1.32372 | –
x2 = 0.989 | 1.32263 | 1.32259 | 1.32154 | –
x2 = 0.9964 | 1.32167 | 1.32163 | 1.32058 | –
